The test system of this experiment is CEM cells HIV-1 protection, formazan growth assay. As to the kind of experiment: NCI AIDS Antiviral Assay. The note with it: for IC50: measured here: growth of uninfected CEM cells. Put shortly:
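Human CEM cells, uninfected and HIV-1-infected, exposed to five drug concentrations; growth measured by soluble formazan assay and scored as percent protection from infection, with protecting compounds retested.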

This note sets out measurements from PubChem BioAssay AID179 (DTP/NCI, 2004).

SMILES strings stand for the structures. The source made the active and inactive calls.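 Rule for the calls: active = compounds giving half or more protection of infected cells from virus-caused growth loss, again on retest; inactive = the rest.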

What is called EC50 is the concentration needed to bring the measured effect to its halfway point. Broadly, the IC50 is the concentration needed to halve the response being measured. For the molecule `Oc1ccc(O)c2c1N=NC21c2ccccc2Oc2ccccc21`, the EC50 is greater than 112 µM and the IC50 was found to be 33.1 µM.
On to `COc1ccc(/C(=N/O)c2ccccc2C2=Nc3ccccc3C(NCc3ccccc3)O2)cc1C` (configuration not stated), for which the EC50 was greater than 200 µM and the IC50 stood at 22.4 µM.
Consider `COc1ccc2[nH]c3c(c2c1)C(=O)c1ccncc1C3=O`, for which the EC50 is greater than 20 µM and the IC50 was determined as 1.2 µM.
The corresponding values for `Cc1nc(-c2cccnc2)sc1C(=O)/C=C/c1cccc([N+](=O)[O-])c1` are greater than 74.1 µM and greater than 74.1 µM.
The corresponding values for `O=[N+]([O-])/C(C(Cl)=C(Cl)Cl)=C(\SCc1ccccc1)N1CCCCC1` are greater than 200 µM and greater than 200 µM.
The corresponding values for `NC1=NCC(CN2CCCCC2)O1` (configuration not stated) are greater than 200 µM and greater than 200 µM.
For the molecule `O=c1cc(-c2ccccc2)oc2c1ccc1[nH]c3ccccc3c(=O)c12`, the EC50 was greater than 200 µM and the half-inhibitory concentration (IC50) was greater than 200 µM.
In the case of `CCCCCCCCCCCCNC(=S)OC`, the result was inactive.
Regarding `CC(C)(/C=N/O)/[N+]([O-])=C/c1ccccc1`, the EC50 is greater than 200 µM and the IC50 was greater than 200 µM.
Turning to `CCC1(CC)COP(=S)(SCCOC(=O)c2ccccc2)OC1`, the EC50 was greater than 200 µM and the IC50 came out at 46.8 µM.
As to `CC(C)c1cc2c3c(c1O)OC(=O)C[C@@]3(C)C1[C@@H](OC(=O)C1(C)C)C2=O` (some centres not stated), the EC50 was greater than 501 µM and the half-inhibitory concentration (IC50) was found to be 295 µM.
In the case of `NC(=O)OCC(O)COc1ccc(Cl)cc1` (configuration not stated), the EC50 was greater than 200 µM and the IC50 is greater than 200 µM.
Consider `Cc1ccc(SC(CCC(Sc2ccc(C)cc2)Sc2ccc(C)cc2)Sc2ccc(C)cc2)cc1`, for which the outcome was inactive.
`CCOC(=O)C1(C(=O)OCC)Cc2c([nH]c3ccccc23)CN1C(=O)c1ccccc1`: the EC50 is greater than 22.4 µM and the IC50 is greater than 22.4 µM.
With `N#CC(C#N)=Cc1ccc(C=C(C#N)C#N)cc1`, the EC50 was greater than 200 µM and the IC50 was 8.51 µM.
For `CC(C)(O)c1cc2nc3ccccc3nc2n1CCO`, in that order: greater than 200 µM and greater than 200 µM.
As for `OC1COC2CC(Nc3ccccn3)OC12` (configuration not stated), the EC50 was greater than 200 µM and the half-maximal inhibitory concentration (IC50) was greater than 200 µM.
`C#CCN(N=O)C(=O)ON1C(=O)CCC1=O`: the EC50 was greater than 1120 µM and the concentration for half-maximal inhibition (IC50) turned out to be 537 µM.
Take `C[N+]1(CCC(C(N)=O)(c2ccccc2)c2ccccc2)CCCC12CCCCC2` (configuration not stated): the outcome was inactive.
For `COc1cc(/C=C2/SC(c3ccccc3)N(c3cccc([N+](=O)[O-])c3)C2=O)cc(OC)c1OC` (configuration not stated), the EC50 was greater than 200 µM and the IC50 was found to be 107 µM.
The corresponding values for `Cc1ccc(C(=O)Nc2ccc(CP(=O)(O)O)cc2CP(=O)(O)O)cc1NC(=O)c1cccc(NC(=O)Nc2cccc(C(=O)Nc3cc(C(=O)Nc4ccc(CP(=O)(O)O)cc4CP(=O)(O)O)ccc3C)c2)c1` are greater than 100 µM and greater than 100 µM.
As to `O=C(O)C1C(c2c3ccc(=O)c(O)c-3oc3c(O)c(O)ccc23)C2(Cl)C(Cl)=C(Cl)C1(Cl)C2(Cl)Cl` (configuration not stated), the EC50 is greater than 151 µM and the IC50 was greater than 151 µM.
For `CCCCCCCCCCCCCCCC(=O)NC(Cc1ccc(O)cc1)C(=O)O` (configuration not stated), the EC50 was greater than 100 µM and the IC50 was determined as 50.1 µM.
For `CC1=C(C)CC(C#N)(C#N)C(C#N)(C#N)C1`, in that order: greater than 200 µM and 19.1 µM.
For `O=C(C1C(c2ccccc2)N1C(c1ccccc1)c1ccccc1)C1C(c2ccccc2)N1C(c1ccccc1)c1ccccc1` (configuration not stated), in that order: greater than 3.39 µM and greater than 3.39 µM.
Turning to `CCCCC1(N=[N+]=[N-])C(=O)c2cccc3c2N(CCC3)C1=O` (configuration not stated), the EC50 is greater than 200 µM and the IC50 is greater than 200 µM.
Consider `COC(=O)c1ccc(N=Cc2ccc(C=Nc3ccc(C(=O)OC)cc3)cc2)cc1`, for which the EC50 is greater than 12.9 µM and the IC50 was greater than 12.9 µM.
For the molecule `CCOc1ccccc1NC(=O)C(=O)C(c1ccccc1)S(=O)(=O)Cc1ccccc1` (configuration not stated), the EC50 is greater than 200 µM and the IC50 turned out to be 120 µM.
Turning to `O=C1OC(=O)C2C1C1(c3ccccc3)OC2(c2ccccc2)c2c(Br)c(Br)c(Br)c(Br)c21` (configuration not stated), the result was inactive.
Regarding `O=C(CNc1nccs1)Nn1cnc2ccc(S(=O)(=O)Nc3nccs3)cc2c1=O`, the EC50 was greater than 200 µM and the IC50 was greater than 200 µM.
Turning to `CC(=O)OC1=C(C)S(=O)(=O)c2ccccc21`, the EC50 is greater than 200 µM and the IC50 is greater than 200 µM.
Take `COc1ccccc1N1C(=O)C2C3c4ccccc4C(OC(C)=O)(c4ccccc43)C2C1=O` (configuration not stated): the EC50 is greater than 200 µM and the IC50 was greater than 200 µM.
`CC(C)N(C(=O)C1(C)CC1)C(C)C`: the EC50 was greater than 1350 µM and the IC50 was greater than 1350 µM.
In the case of `CN(C(=O)C1=CCC2(CC1)OCCO2)c1ccccc1I`, the EC50 is greater than 200 µM and the IC50 is greater than 200 µM.
`O=C(Cn1c(=O)oc2ccc(C(=O)c3ccc(F)cc3)cc21)c1ccc([N+](=O)[O-])cc1`: the EC50 was greater than 200 µM and the half-maximal inhibitory concentration (IC50) was found to be 25.1 µM.
For `CC(=O)Nc1ccc(S(=O)(=O)N/N=C/C(=O)O)cc1`, in that order: greater than 200 µM and greater than 200 µM.
For `O=C1C=C(N2CCCC2)c2ncccc2C1=O`, the result was inactive.
For `CC(=O)OCC1OC(n2c(-c3ccc(Cl)cc3)ccc(C#N)c2=S)C(OC(C)=O)C(OC(C)=O)C1OC(C)=O` (configuration not stated), the EC50 is greater than 200 µM and the IC50 is greater than 200 µM.
For `Cc1ccc(S(=O)(=O)N2CCNCCN(S(=O)(=O)c3ccc(C)cc3)CCNCC2)cc1`, the EC50 is greater than 126 µM and the IC50 was 51.3 µM.
In the case of `CCOC(=O)C1Cc2ccc3c4c(ccc(c24)C1)CC(C(=O)OCC)C3`, the result was inactive.
As to `CN(OC(=O)CC(=O)c1ccccc1)C(=O)Cc1ccccc1`, the EC50 was greater than 251 µM and the IC50 came to 191 µM.
For `Cn1c(=O)c(C(=O)NC(=O)NCCCCCOC(=O)CCCCCCCCCCC(=O)OCCCCCNC(=O)NC(=O)c2cn(Cc3ccccc3)c(=O)n(C)c2=O)cn(Cc2ccccc2)c1=O`, in that order: greater than 7.41 µM and greater than 7.41 µM.
`Cc1cc2c(cc1C)C(=O)C(=O)N2`: the EC50 was greater than 148 µM and the IC50 is greater than 148 µM.
`O=C(Nc1cc(Cl)cc(Cl)c1)/C(Cc1nc2ccccc2[nH]c1=O)=N/NC(=O)c1ccncc1`: the EC50 is greater than 132 µM and the IC50 is greater than 132 µM.
`[O-]c1c(-c2ccccc2)[se]c(-c2ccccc2)[n+]1-c1ccccc1`: the outcome was inactive.
Still for that read-out and setting: next, `CC[C@@H]1CC[C@@H]2[C@H](CC[C@]3(C)[C@@H](O[N+](=O)[O-])CC[C@@H]23)[C@H]1C(C)=O`: “inactive”; `CC12NC(=O)NC(=O)N1CCS2` (configuration not stated): “inactive”.
Regarding `CN1CCN(C(=S)N(C(=O)c2cccs2)c2ccccc2)CC1`, the EC50 is greater than 105 µM and the IC50 is greater than 105 µM.
In the case of `NNC(=O)c1n[nH]nc1SSc1n[nH]nc1C(=O)NN`, the outcome was inactive.
On to `CCCN(CCC)C(=O)c1c(N2CCN(C)CC2)c2cccnc2n2c(C)cnc12`, for which the EC50 was greater than 200 µM and the IC50 is greater than 200 µM.
For the molecule `COC(=O)c1ccc(C(=O)OC)c2nc3cc(Cl)ccc3nc12`, the EC50 is greater than 30.2 µM and the IC50 is greater than 30.2 µM.
On to `COc1ccc2nc3cc(Cl)ccc3c(NCCNC(=O)Cn3c(=O)n(C)c(=O)c4c3nc3c(c(=O)n(C)c(=O)n3C)[n+]4[O-])c2c1`, for which the EC50 was greater than 100 µM and the IC50 was 39.8 µM.
Take `CCOc1cnn(-c2ccccc2)c(=O)c1SCc1ccccc1`: the EC50 is greater than 77.6 µM and the IC50 amounted to 56.2 µM.
On to `O=c1c2c3c(sc2nc2n1N=CN(c1ccc(Cl)cc1)C2)CCCC3`, for which the EC50 was greater than 200 µM and the IC50 is 38 µM.
For the molecule `O=Cc1ccccc1OCCCC[P+](c1ccccc1)(c1ccccc1)c1ccccc1`, the EC50 was greater than 200 µM and the half-maximal inhibitory concentration (IC50) came out at 2.82 µM.
Turning to `CC(C)(C)OC(=O)NC(Cc1ccc(OC(C)(C)C)cc1)C(=O)N[C@H]1CC[C@H](C(=O)O)C1` (some centres not stated), the outcome was inactive.
On to `N/N=C1\C(=O)N(C2CCCCCC2)C(=O)C1C(=O)NC1CCCCCC1` (configuration not stated), for which the EC50 is greater than 14.5 µM and the IC50 is greater than 14.5 µM.
Regarding `c1ccc2c(c1)Nc1nc3nonc3nc1N2`, the EC50 was greater than 200 µM and the IC50 is greater than 200 µM.
Take `CC(=O)C(C)C(=O)N1C(=O)N(C)C2(C)N(C)C(=O)NC12C` (configuration not stated): the EC50 was greater than 200 µM and the IC50 is greater than 200 µM.
Consider `COc1cc2c(-c3onc4ccc(OCc5ccccc5)cc34)nccc2c(OC)c1OC`, for which the result was inactive.
`COC(=O)C1C2C=CC(C2)C1(C(=O)OC)S(=O)CC12CCC(CC1O)C2(C)C` (configuration not stated): the EC50 is greater than 229 µM and the IC50 is greater than 229 µM.
As for `CN1CCCNCCN(CCc2ccccn2)CCCN(C)CC1`, the EC50 was greater than 132 µM and the IC50 is greater than 132 µM.
For the molecule `O=C1C=CC(=O)c2c(O)ccc(O)c21`, the EC50 was greater than 200 µM and the IC50 is 3.89 µM.
For `O=c1c2cccnc2cc(-c2ccccc2)n1CCO`, in that order: greater than 200 µM and greater than 200 µM.
The corresponding values for `O=C(NNc1nc2ccccc2n2cccc12)Nc1ccc(Br)cn1` are greater than 200 µM and 46.8 µM.
As to `CCOC(=O)c1cc(I)c(-c2cc(C)no2)n1C`, the EC50 is greater than 200 µM and the IC50 was 37.2 µM.
As for `N#CC(C#N)=CSc1ccccc1`, the result was inactive.
In the case of `CCOC(=O)C(=O)/C(=C/N1CC(=O)NC1=S)C(=O)OCC`, the EC50 is greater than 200 µM and the IC50 was greater than 200 µM.
Take `CC(C)N(C(=O)c1ccc(NCc2cc(O)ccc2O)cc1)C(C)C`: the EC50 is greater than 200 µM and the IC50 was determined as 12.6 µM.
Take `CN1CCN(Cc2cc3c(nn2)-c2ccccc2C3=O)CC1`: the EC50 is greater than 200 µM and the IC50 worked out at 110 µM.
For `Fc1ccc(C2(CCCN3CCc4[nH]c5cc(F)ccc5c4C3)OCCO2)cc1`, in that order: greater than 200 µM and 18.6 µM.
For `COc1cccc(N2C(=O)C3c4[nH]c5ccccc5c4C4c5ccccc5CCC4C3C2=O)c1` (configuration not stated), the EC50 is greater than 100 µM and the IC50 is greater than 100 µM.
Turning to `O=S1OC2(c3ccccc3-c3ccccc32)c2ccccc21` (configuration not stated), the result was inactive.
